Here are results for 4 compounds from patent US10266490B2, “Radioprotector compounds” (GEORGETOWN UNIVERSITY, priority 2012, dated 2019).

The test system of assay [1] is cultured cells (e.g., fibroblasts and epithelial cells). Kind of assay: Radiation protection of cultured cells (clonogenic survival, various cell types). Format: cell-based. The following applies: for radiation protection relative to DIM: cultured cells. An excerpt: DIM, a metabolite of indole-3-carbinol and a proposed […], is a potent radiation protector in cultured cells and in rodents (mice and rats). The preparation of DIM that was used for most experiments was a microencapsulated form of DIM produced by BioResponse Nutrients (Boulder, Colo.). This microencapsulated form of DIM is designed with specific excipients (e.g., alpha-tocopherol succinate and phosphatidylcholine) to provide enhanced absorption and, therefore, enhanced bioavailability.
(§1) Following the indicated treatment(s), subconfluent proliferating cells were irradiated with different doses of ^137Cs γ-rays, harvested using trypsin, and plated at different densities in the absence or presence of DIM (as indicated) for colony formation (clonogenic survival) assays, as described in Zhang et al., Radiat Res, 161:667-674 (2004). Values of surviving fraction are means±SEMs of triplicate plates.
Novel compounds were synthesized, which we have tested for their ability to protect cells against radiation in cultured cells. […] None of these compounds are predicted to be free-radical scavengers or to be genotoxic. For reference, clonogenic radiation survival curves of cultured human mammary epithelial cells treated without or with DIM are shown in FIG. 6, panels A and B. In these studies, human mammary epithelial cells at about 70-80% of confluency were treated with DIM (0.3 μM) or vehicle ([…]) for 24 hours. The cells were then irradiated using different doses of ^137Cs gamma rays, harvested, plated at different densities in the presence of DIM (0.3 μM) or vehicle, respectively, incubated for 14 days, and then counted for colony formation. In FIG. 6, panels A and B, the clonogenic survival curves are shown using non-tumorigenic human mammary epithelial cell lines Hs5788st (panel B) or 184A1 (panel A). All cell survival values are means±SEMs of three replicate dishes.

Another assay concerns ATM. Kind of assay: Western blot of ATM signaling, 184A1 cells. Format: cell-based, human. Particulars: KU55933 10 μM. As to the method:
FIG. 7A contains Western blots of subconfluent proliferating 184A1 human mammary epithelial cells exposed to DIM (0.3 μM) for different time intervals. Phosphorylated or total levels of ATM and of several different ATM substrate proteins were determined, as indicated. As a negative control, cells were treated with a selective inhibitor of ATM kinase activity (KU55933). FIG. 7B contains Western blots of 184A1 cells either untreated or treated with radiation (2-Gy of γ-radiation) and/or DIM (0.3 μM).
FIG. 8 contains a Western blot of subconfluent proliferating 184A1 human mammary epithelial cells exposed to DIM (0.3 μM) for different time intervals. Phosphorylated or total levels of ATM and of different DNA damage-response proteins were determined, as indicated.
Western blotting was performed. The primary antibodies were as follows: rabbit polyclonal anti-BRCA1 (sc-642, Santa Cruz); mouse monoclonal α-actin (sc-1616, Santa Cruz); anti-phospho-BRCA1 (S1387) [AB3257, Millipore (Billerica, Mass.)]; mouse monoclonal anti-ATM (sc-73615, Santa Cruz,); anti-phospho-ATM (S1981); anti-CHK2 (05-649, mouse monoclonal, Millipore); anti-phosph-CHK2 (T68) (ab32055, rabbit monoclonal, Abcam, Cambridge, Mass.); anti-p53 (ab2433, rabbit polyclonal, Abcam), and rabbit polyclonal anti-phospho-p53 (S15) (ab38497, Abcam).

Assay [2] deals with non-homologous end joining. Nature of the assay: DNA strand rejoining assay (linearized plasmid pEGFP-1, nuclear lysates). The following applies: 184A1 cells; inhibitor 10 μM. In kind it is cell-based, human. As to the method:
FIGS. 11A and 11B show subconfluent proliferating 184A1 (FIG. 11A) or Hs578Bst (FIG. 11B) cells pre-treated±DIM (0.3 μM×24 hr); exposed to radiation (3-Gy) on ice; and subjected to neutral comet assays at different times post-irradiation. Values of % tail DNA are means±ranges of two determinations. […] At 24-hr after irradiation, cells were analyzed by flow cytometry for apoptosis, by measuring membrane redistribution of phosphatidylserine. The percentage of early and late apoptotic cells for non-irradiated control cells were: vehicle treated, 1.25% and 1.34%, and DIM-treated, 0.54% and 1.02%, respectively.
After the indicated cell treatment(s), nuclear lysates were prepared and aliquots of lysate (50 or 75 μg of nuclear protein) were tested for their ability to rejoin a plasmid (pEGFP-1, Clontech) that had been linearized using restriction enzyme SmaI. The reaction products were detected by Southern blotting, which was performed with a digoxigenin-labeled enhanced green fluorescent protein RNA probe. The percent rejoined plasmids […] was determined by densitometric quantification of the bands corresponding to rejoined and unrejoined plasmid.
Since ATM is known to have a major role in the repair of radiation-induced double-strand breaks (DSBs) of DNA, it was tested whether DIM could stimulate the repair of DSBs. The neutral comet assay is an electrophoretic method to measure DNA damage that reflects DSBs. The percent of tail DNA after irradiation reflects the number of DSBs. […] A DNA strand-rejoining assay based on the ability of cell nuclei to rejoin a linearized plasmid (pEGFP-1) was also performed, detected by Southern blotting. This assay reflects the process of non-homologous end joining (NEHJ).

Assay [3] has as its system Hs578Bst human mammary epithelial cells. Nature of the assay: Clonogenic survival after radiation, Hs578Bst cells. Particulars: single dose of radiation (8-Gy); different concentrations. In kind it is cell-based.
Description: as §1
It was next tested whether DIM could protect cultured cells against radiation using clonogenic survival (colony formation) assays. Cells were exposed to DIM (0.3 μM) for 24-hr, irradiated, and harvested for colony formation assays. […]
Novel compounds were synthesized, which we have tested for their ability to protect cells against radiation in cultured cells. […] The cells were then irradiated using different doses of ^137Cs gamma rays, harvested, plated at different densities in the presence of DIM (0.3 μM) or vehicle, respectively, incubated for 14 days, and then counted for colony formation. […]
Cells at about 70-80% confluency were treated with vehicle (DMSO) or with the indicated compound (1 μM) for 24 hours, irradiated using different doses of ^137Cs gamma rays, harvested, plated at different densities in the presence of the compound (0.3 μM) or vehicle, respectively, incubated for 14 days, and then counted for colony formation. […]

Consider `c1ccc2c(Cc3c[nH]c4ccccc34)c[nH]c2c1` [crystalline DIM, 3,3′-diindolylmethane], for which the “radioprotection of cultured cells” value in assay [1] (ionizing radiation, clonogenic survival assays) is “work very well as radioprotectors”.
With `O=c1cc(-c2cccc3c2Sc2ccccc2S3)oc(N2CCOCC2)c1` [KU55933], the “effect on DIM-induced phosphorylations of ATM, BRCA1 and CHK2” value in the assay on ATM is given as “blocked”. Moreover, the “effect on DIM-induced strand-rejoining” value in assay [2] is reported as “blocked DIM-induced strand-rejoining”.
For the compound `CCOC(=O)C(O)(c1c(C)n(C)c2ccccc12)C(F)(F)F` (stereo not drawn) [THW-5-85], in assay [1], the “radiation protection relative to DIM” value was “strong levels of radiation protection similar to, slightly greater than, or slightly less than DIM”. Further, in assay [3], the “potency of survival enhancement relative to DIM” value is recorded as “at least as potent as DIM”.
As for `COc1ccc2c(c1)[nH]c1c(C)c(OS(=O)(=O)c3cccc4c(N(C)C)cccc34)ccc12` [KED-4-69], the “radiation protection relative to DIM” value in assay [1] is recorded as “strong levels of radiation protection similar to, slightly greater than, or slightly less than DIM”.
